# US10322114B2 (Above and Beyond NB LLC, priority 2017, dated 2019)
# [1] = oral 1.3 mg/kg BID 14 days versus IT 0.25 mg/hour 5 days, higher in oral
# From the text: Animals were then sacrificed and a necropsy was immediately performed.
# After stopping the 5-day treatment, animals were sacrificed and a necropsy was immediately performed. […] One hour after stopping the 14-day treatment, animals were sacrificed and a necropsy was immediately performed.
# Animals were then sacrificed and a necropsy was immediately performed. […] Animals were then sacrificed and a necropsy was immediately performed.
compound,measurement,setting,value
"Nc1nc2ccc(OC(F)(F)F)cc2s1 [Riluzole, 2-Amino-6-(trifluoromethoxy)benzothiazole]","riluzole accumulation in the spinal cord, IT-treated compared to oral-treated dogs","IT 0.25 mg/hour 5 days versus oral 1.3 mg/kg BID 14 days, higher in IT",approximately 4 fold
same,"riluzole level in CSF, oral-treated compared to IT-treated dogs",oral 1.3 mg/kg BID 14 days versus IT 0.25 mg/hour 5 days,similar
same,"riluzole level in plasma, oral-treated compared to IT-treated dogs",[1],approximately 20 fold
same,"riluzole level in urine, oral-treated compared to IT-treated dogs",[1],approximately 3 fold
